Reference: patent US12187663B2, “Thyromimetics with a biphenylmethane scaffold and their use” (INTERNATIONAL SOCIETY FOR DRUG DEVELOPMENT S.R.L., priority 2019, dated 2025)

Columns and labels:
[1] = Panel of early-toxicity assays (in vitro ADME-TOX profiling); details: 10 μM of each compound
Description: FIG. 5. ADME-TOX profiling In order to assess the ADME-TOX profile of new synthetized compounds a full panel of in vitro assays was performed. Cytotoxic effects were evaluated on 4 different cell lines (U2-OS, HEK293, hTERT, MCF-7) at 24 h and 48 h after treatment with new compounds. Cardiac toxicity was assessed evaluating the inhibition effect of compounds on the hERG ion-channel, an important anti-target involved in heart functionalities. Metabolic interference was evaluated testing inhibitory effects of new compounds on four isoforms of CYP450 (CYP2C9, CYP2C19, CYP2D6, CYP3A4). In order to assess off-target liabilities, the inhibitory effects have been assessed against several well-known off-targets. […] The data were collected and analyzed in the form of a traffic-light system using criteria shown below.
Test compounds (20 nL of 10 mM top concentration in 100% v/v DMSO), positive control (PC; Valinomycin with final concentration of 10 μM and 0.1% v/v DMSO) and NC (final 0.1% v/v DMSO) were added in an empty polystyrene 384-well cell culture microtiter plate using the Echo 550 Liquid Handler and stored at room temperature before cell's seeding. […] At 24 h and 48 h post-treatment, 20 μL/well of CTG detection mix were added, and plates were read using an EnVision Multilabel 2103 Reader after a 10-min incubation in the dark. […]

[2] = target: T1, TR-alpha (Homo sapiens, UniProt P10827); experiment: LanthaScreen TR-FRET nuclear receptor coregulator assay, TR-alpha; assay type: biochemical; details: for EC50: Nuclear Receptor TR-alpha, coregulator peptide recruitment; for interaction with TRalpha receptor: conclusion from TR-FRET data
T1 construct: In this assay Nuclear Receptor-LBD is added to ligand test compounds; purchased Invitrogen Corporation, Life Technologies
T1 sequence (P10827 163-410 isoform P10827-2 limits assumed, other chains not shown): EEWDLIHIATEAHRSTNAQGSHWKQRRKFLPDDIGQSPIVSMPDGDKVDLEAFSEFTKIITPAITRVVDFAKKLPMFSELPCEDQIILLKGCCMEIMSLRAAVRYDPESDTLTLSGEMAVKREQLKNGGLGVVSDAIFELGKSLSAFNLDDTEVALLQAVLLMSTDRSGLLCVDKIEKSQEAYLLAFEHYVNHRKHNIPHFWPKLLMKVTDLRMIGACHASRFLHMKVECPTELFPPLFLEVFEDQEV
Description: The compounds of Formula (I,II) were tested in the biological test named LANTHASCREEN TR-FRET NUCLEAR RECEPTOR COREGULATOR ASSAY (Invitrogen Corporation, Life Technologies).
In this assay Nuclear Receptor-LBD is added to ligand test compounds followed by addition of a mixture of the fluorescein-coregulator peptide and terbium anti-GST antibody.

[3] = Liver/body weight ratio in rats; assay type: in vivo, F344 male rats; details: 3 days daily; IS25 or TG68 50, 75, 100 μg/100 g b.w. i.g. or 75 μg/100 g i.p.; T3 20 μg/100 g b.w.
Description: Five-week-old male F-344 rats purchased from Charles River (Milano, Italy) were maintained on a standard laboratory diet (Ditta Mucedola, Milano, Italy). The animals were given food and water ad libitum with a 12-h light/dark daily cycle and were acclimated for 1 week before the start of the experiment. All procedures were performed in accordance with the Guidelines for the Care and Use of Laboratory Animals and were approved by the Italian Ministry of Health. […] A control group received the vehicle (DMSO 5% in corn oil). Additional two groups received daily injections of either IS25 or TG68 at the dose of 75 μg/100 g b.wt. intraperitoneally for 3 days. For the measurement of hepatocyte proliferation, animals received bromodeoxyuridine (BrdU; 1 g/1 L) in drinking water during the 3-day treatment period (FIGS. 7A and B).
A control group received the vehicle (DMSO 5% in corn oil). Additional two groups received daily injections of either IS25 or TG68 at the dose of 75 μg/100 g b.w. intraperitoneally for 3 days.

| SMILES | early-toxicity / liability profile (% inhibition heat map) [1] | EC50 [2] [µM] | interaction with TRalpha receptor [2] | liver/body weight ratio [3] |
| --- | --- | --- | --- | --- |
| Cc1cc(OCC(=O)O)cc(C)c1Cc1ccc(N)c(C(C)C)c1 [IS25, 2-(4-(4-amino-3-isopropylbenzyl)-3,5-dimethylphenoxy)acetic acid] | safer profile | > 1 | do not interact | no such effect was observed |
| CC(=O)Nc1ccc(Cc2c(C)cc(OCC(=O)O)cc2C)cc1C(C)C [TG68, 2-(4-(4-acetamido-3-isopropylbenzyl)-3,5-dimethylphenoxy)acetic acid] | safer profile | > 1 | do not interact | no such effect was observed |
